Measurements: publication PMC5394417, “Investigating the molecular mechanism of positive and negative allosteric modulators in the calcium-sensing receptor dimer” (Scientific Reports, 2017)
Residue numbers refer to the chain shown, from its start. Values joined by “and” are separate entries in the source; they are usually repeats but may differ in a detail not shown here. Equal values may be shown once.

Target: T1, HA-S170A + myc-F801A (S170A:F801A heterodimer) (Rattus norvegicus, UniProt P48442, F801A/S170A)
T1 construct: mGluR5 signal peptide (N); expressed in transfected cells; host or cells: HEK293T
T1 sequence (P48442 20-1079 S170A): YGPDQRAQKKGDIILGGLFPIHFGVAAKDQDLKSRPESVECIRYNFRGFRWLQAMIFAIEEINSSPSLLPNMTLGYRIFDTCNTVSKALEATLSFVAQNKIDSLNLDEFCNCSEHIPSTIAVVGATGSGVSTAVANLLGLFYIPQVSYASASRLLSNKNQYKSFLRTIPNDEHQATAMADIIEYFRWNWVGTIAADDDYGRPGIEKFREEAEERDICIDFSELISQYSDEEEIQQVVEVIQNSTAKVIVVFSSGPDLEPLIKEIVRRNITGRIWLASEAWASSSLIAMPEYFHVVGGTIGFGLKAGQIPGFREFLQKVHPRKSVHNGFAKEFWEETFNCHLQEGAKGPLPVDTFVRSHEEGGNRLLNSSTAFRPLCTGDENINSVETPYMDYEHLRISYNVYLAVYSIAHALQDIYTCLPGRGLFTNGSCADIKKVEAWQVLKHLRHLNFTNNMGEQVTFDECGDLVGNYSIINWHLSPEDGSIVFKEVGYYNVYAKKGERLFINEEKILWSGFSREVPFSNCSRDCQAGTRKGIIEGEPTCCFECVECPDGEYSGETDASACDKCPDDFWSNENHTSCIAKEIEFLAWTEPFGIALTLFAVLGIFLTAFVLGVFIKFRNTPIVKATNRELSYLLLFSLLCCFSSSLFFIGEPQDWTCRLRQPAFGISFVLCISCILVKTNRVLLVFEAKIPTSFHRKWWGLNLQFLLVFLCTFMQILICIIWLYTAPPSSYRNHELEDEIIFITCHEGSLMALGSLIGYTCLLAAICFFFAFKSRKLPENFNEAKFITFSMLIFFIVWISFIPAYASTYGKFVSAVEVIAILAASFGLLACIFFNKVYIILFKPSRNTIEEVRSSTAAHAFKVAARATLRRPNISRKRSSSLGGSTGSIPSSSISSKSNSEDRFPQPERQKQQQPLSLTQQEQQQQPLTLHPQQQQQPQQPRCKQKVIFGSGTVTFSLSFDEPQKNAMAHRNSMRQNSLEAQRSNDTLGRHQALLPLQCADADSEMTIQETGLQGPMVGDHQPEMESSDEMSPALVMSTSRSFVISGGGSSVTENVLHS
T1 sequence (P48442 20-1079 F801A): T1 sequence (P48442 20-1079 S170A) with A151S, F782A
Assay: IP-One trans-activation assay, co-expression 1:1 in HEK293T
Format: cell-based
Method: Human embryonic kidney (HEK) 293T cells were cultured in DMEM supplemented with 10% dFBS and 1% P/S at 37 °C and 5% CO2. 48 h prior to assay, transient transfection was performed using Lipofectamine 2000 as the transfection reagent. White opaque 96-well culture plates (PerkinElmer, Waltham, MA, USA) were used for the ELISA and the TR-FRET dimerization assay, while clear tissue culture treated 96-well plates (Corning, Corning, NY, USA) were used for the IP-One assay. Both plate types were coated with poly-D-lysine before addition of cells and transfection mix. 0.25 μl/well of Lipofectamine 2000 were diluted in 25 μl/well of Opti-MEM and incubated at room temperature (RT) for 5 min. 0.03 μg/well of DNA was diluted in 25 μl/well of Opti-MEM, and subsequently mixed with the Lipofectamine 2000 dilution and incubated 20 min at RT before addition to the plates. Cell suspensions of 170.000 HEK293T cells/mL were prepared in complete growth medium and 100 μl/well (17.000 cells/well) was added to the plates, which were incubated for 48 h at 37 °C and 5% CO2 before performing assays.
Functional activity was measured using the IP-One assay, which is an IP1 accumulation assay. For agonist testing, ligands were prepared in final concentrations in ligand buffer (HBSS, 20 mM HEPES, pH 7.4 supplemented with 20 mM LiCl). Cells were washed once with 100 μl/well of assay buffer (HBSS, 20 mM HEPES, pH 7.4) and 50 μl/well of agonist solution was added after which plates were incubated at 37 °C for 30 min. Subsequently, ligand solutions were removed and cells were washed with 100 μl/well of assay buffer. Cell lysis was performed by addition of 30 μl/well of IP-One Conjugate & Lysis Buffer (Cisbio Bioassays, Codolet, France) and plates were incubated at RT for 30 min. Afterwards, 30 μl/well of assay buffer was added to dilute the cell lysate. 10 μl/well of cell lysate was transferred from the 96-well plate to a 384-well Optiplate and 10 μl/well of detection solution (Assay buffer + 2.5% of anti-IP1 antibody cryptate Terbium conjugate + 2.5% IP1-d2 conjugate (Cisbio Bioassays, Codolet, France)) was also added. The 384-well plate was incubated for 1 h at RT in dark before being measured on an EnVision plate reader (PerkinElmer, Waltham, MA, USA). Upon excitation at 340 nm, emission at 615 nm and 665 nm was measured, and the FRET ratio (665 nm/615 nm) was converted to IP1 concentrations by interpolating values from an IP1 standard curve generated from a provided IP1 calibrator (Cisbio Bioassays, Codolet, France). When testing allosteric modulators, cells were pre-incubated for 30 min at 37 °C with 50 μl/well of ligand buffer supplemented with allosteric modulator and a final concentration of 1% DMSO. Afterwards, the buffer solution was removed and 50 μl/well of agonist solution in ligand buffer supplemented with allosteric modulator and a final concentration of 1% DMSO was added. Plates were incubated for 30 min at 37 °C followed by one wash in 100 μl/well of assay buffer. Cell lysis and detection was performed as described above.

[1] = HA-S170A + myc-F801A trans-activation response, Ca^2+ alone

[Ca+2] [Ca^2+]
EC50 [1]: 12.7 mM
Hill coefficient ± S.E.M. [1]: 2.69 ± 0.19
pEC50 ± S.E.M. [1]: 1.90 ± 0.03
Max ± S.E.M. (HA-S170A + myc-F801A, maximum trans-activation response normalized to maximum response of WT CaSR): 30% and 30 ± 1.9%

CC(C)(Cc1ccc2ccccc2c1)NC[C@@H](O)COc1cccc(Cl)c1C#N.Cl [NPS 2143, NPS 2143 hydrochloride]
inhibition of Ca^2+-mediated response (S170A:F801A heterodimer, highest tested NPS 2143 concentration (5 μM)): full inhibition

COc1cccc([C@@H](C)NCCCc2ccccc2Cl)c1.Cl [NPS R-568, NPS R-568 hydrochloride]
potentiation of Ca^2+-mediated response (S170A:F801A heterodimer, 0.05, 0.1 and 1 μM NPS R-568): concentration-dependent potentiation
